In brackets after ≈: the same amount, converted by molar mass. Entries after “also recorded” stand apart in the source; their conditions may differ.
Tests used:
[1] = Hemolytic activity, minimal hemolytic concentration (MHC); type: cell-based, sheep; details: sheep red blood cells, 24 hours at 37° C. in saline
Experimental: (§1) Hemolytic activity of the squalamine mimics according to the present invention were also studied by incubating sheep red blood cells for 24 hours at 37° C. in saline (final concentration of 0.5%) with or without respective concentrations of the squalamine mimics. The minimal hemolytic concentration (MHC) was determined as the lowest concentration of a mimic that raised visible hemolysis.

[2] = test system: S. agalactiae (13813); experiment: MIC, micro-broth dilution; type: cell-based; details: Streptococcus agalactiae, 35° C., 24 hours, read-out: ANTIMICROBIAL ACTIVITY (MIC)
Experimental: (§2) The antimicrobial activity of the compounds according to the present invention were compared with the results obtained for squalamine as reported in Proc. Nat. Acad. Sci. USA 90:1354 (1993), supra, the disclosure of which is incorporated in toto herein. The data reported in the following table is the minimum inhibitory concentration (MIC) required for complete inhibition of microbial growth. The MIC was determined utilizing known micro-broth dilution methods in which inocula of 10^6 /ml of the test organism were incubated in 0.5× trypticase soy broth at 35° C. for 24 hours. MIC's were also tested under various pH conditions, with calcium chloride or magnesium chloride, or with immobilized horse serum.
(§3) The numbers in parentheses contained in the table correspond to accession numbers with the American Type Culture Collection (reference strains were either obtained from the American Type Culture Collection or from the Microbiology Laboratory at Memorial Sloan-Kettering Cancer Center; Bacterial strains were maintained on Columbia 5% sheep blood agar plates, and fungi were maintained on Sabouraud Dextrose agar plates).

[3] = test system: C. neoformans (M68979); experiment: MIC, micro-broth dilution; type: cell-based; details: Cryptococcus neoformans, 24 h, read-out: ANTIMICROBIAL ACTIVITY (MIC)
Experimental: as §2, §3

[4] = test system: A. fumigatus (H1120); experiment: MIC, micro-broth dilution; type: cell-based; details: Aspergillus fumigatus, 35° C., 24 hours, read-out: ANTIMICROBIAL ACTIVITY (MIC)
Experimental: as §2, §3

[5] = test system: P. aeruginosa (2853); experiment: MIC, micro-broth dilution; type: cell-based; details: Pseudomonas aeruginosa, 24 h, read-out: ANTIMICROBIAL ACTIVITY (MIC)
Experimental: as §2, §3

[6] = test system: S. epidermidis (12228); experiment: MIC, micro-broth dilution; type: cell-based; details: Staphylococcus epidermidis, 35° C., 24 hours, read-out: ANTIMICROBIAL ACTIVITY (MIC)
Experimental: as §2, §3

[7] = test system: P. aeruginosa (10145); experiment: MIC, micro-broth dilution; type: cell-based; details: Pseudomonas aeruginosa, 35° C., 24 hours, read-out: ANTIMICROBIAL ACTIVITY (MIC)
Experimental: as §2, §3

[8] = test system: S. marcescens (13880); experiment: MIC, micro-broth dilution; type: cell-based; details: for MIC: Serratia marcescens, 24 h, read-out: ANTIMICROBIAL ACTIVITY (MIC)
Experimental: as §2, §3

[9] = test system: S. aureus (25923); experiment: MIC, micro-broth dilution; type: cell-based; details: Staphylococcus aureus, 35° C., 24 hours, read-out: ANTIMICROBIAL ACTIVITY (MIC)
Experimental: as §2, §3

[10] = test system: S. aureus (29213); experiment: MIC, micro-broth dilution; type: cell-based; details: Staphylococcus aureus, 24 h, read-out: ANTIMICROBIAL ACTIVITY (MIC)
Experimental: as §2, §3

[11] = test system: P. vulgaris (13315); experiment: MIC, micro-broth dilution; type: cell-based; details: Proteus vulgaris, 35° C., 24 hours, read-out: ANTIMICROBIAL ACTIVITY (MIC)
Experimental: as §2, §3

[12] = test system: E. faecium (T6480-9); experiment: MIC, micro-broth dilution; type: cell-based; details: Enterococcus faecium, 35° C., 24 hours, read-out: ANTIMICROBIAL ACTIVITY (MIC)
Experimental: as §2, §3

[13] = test system: E. faecalis (29212); experiment: MIC, micro-broth dilution; type: cell-based; details: Enterococcus faecalis, 35° C., 24 hours, read-out: ANTIMICROBIAL ACTIVITY (MIC)
Experimental: as §2, §3

[14] = test system: K. pneumoniae (13883); experiment: MIC, micro-broth dilution; type: cell-based; details: Klebsiella pneumoniae, 24 h, read-out: ANTIMICROBIAL ACTIVITY (MIC)
Experimental: as §2, §3

[15] = test system: C. albicans (90028); experiment: MIC, micro-broth dilution; type: cell-based; details: Candida albicans, 35° C., 24 hours, read-out: ANTIMICROBIAL ACTIVITY (MIC)
Experimental: as §2, §3

[16] = test system: S. pneumoniae (6305); experiment: MIC, micro-broth dilution; type: cell-based; details: Streptococcus pneumoniae, 35° C., 24 hours, read-out: ANTIMICROBIAL ACTIVITY (MIC)
Experimental: as §2, §3

[17] = test system: E. coli (25922); experiment: MIC, micro-broth dilution; type: cell-based; details: Escherichia coli, 35° C., 24 hours, read-out: ANTIMICROBIAL ACTIVITY (MIC)
Experimental: as §2, §3

[18] = test system: E. cloacae (13047); experiment: MIC, micro-broth dilution; type: cell-based; details: Enterobacter cloacae, 35° C., 24 hours, read-out: ANTIMICROBIAL ACTIVITY (MIC)
Experimental: as §2, §3

[19] = test system: S. pyrogenes (19615); experiment: MIC, micro-broth dilution; type: cell-based; details: 24 h, read-out: ANTIMICROBIAL ACTIVITY (MIC)
Experimental: as §2, §3

[20] = test system: Aspergillus fumigatus; experiment: MIC against clinical isolates; type: cell-based; details: 24 h; clinical isolates of Aspergillus fumigatus
Experimental: as §2, §3

[21] = test system: Cryptococcus neoformans; experiment: MIC against clinical isolates; type: cell-based; details: 24 h; clinical isolates of Cryptococcus neoformans
Experimental: as §2, §3

[22] = test system: gram negative rods; experiment: Antimicrobial activity (MIC), gram negative rods; type: cell-based; details: of all the mimics tested
Experimental: as §2

[23] = test system: gram negative rods; experiment: Enhancement of the antimicrobial activity of rifampin; type: cell-based; details: subinhibitory concentrations of SM-7
[24] = test system: bacteria; experiment: Loss of antimicrobial/bactericidal action in presence of albumin; type: cell-based; details: 12.5 μg/ml of SM-7, 40 mg/ml of bovine serum albumin
[25] = test system: sheep red blood cells; experiment: Hemolytic activity, minimal hemolytic concentration (MHC); type: cell-based
Experimental: as §1

[26] = test system: Pseudomonas aeruginosa; experiment: Bactericidal action; type: cell-based
[27] = test system: Staphylococcus aureus; experiment: Bactericidal action; type: cell-based
[28] = test system: S. aureus (H20809); experiment: MIC, micro-broth dilution; type: cell-based; details: Staphylococcus aureus, 24 h, read-out: ANTIMICROBIAL ACTIVITY (MIC)
Experimental: as §2, §3

[29] = test system: A. fumigatus (H29709); experiment: MIC, micro-broth dilution; type: cell-based; details: Aspergillus fumigatus, 35° C., 24 hours, read-out: ANTIMICROBIAL ACTIVITY (MIC)
Experimental: as §2, §3

[30] = test system: C. neoformans (90012); experiment: MIC, micro-broth dilution; type: cell-based; details: Cryptococcus neoformans, 24 h, read-out: ANTIMICROBIAL ACTIVITY (MIC)
Experimental: as §2, §3

[31] = test system: Escherichia coli; experiment: Bactericidal action; type: cell-based
[32] = test system: various groups of microorganisms; experiment: Antimicrobial activity (MIC), all microorganisms tested; type: cell-based
Experimental: as §2, §3

| SMILES | minimal hemolytic concentration (MHC) at 24 h [1] [µg/mL] | MIC [2] [µg/mL] | MIC [3] [µg/mL] | MIC [4] [µg/mL] | MIC [5] [µg/mL] | MIC [6] [µg/mL] | MIC [7] [µg/mL] | MIC [8] [µg/mL] | MIC [9] [µg/mL] | MIC [10] [µg/mL] | MIC [11] [µg/mL] | MIC [12] [µg/mL] | MIC [13] [µg/mL] | MIC [14] [µg/mL] | MIC [15] [µg/mL] | MIC [16] [µg/mL] | MIC [17] [µg/mL] | MIC [18] [µg/mL] | MIC [19] [µg/mL] | other results |
| --- | --- | --- | --- | --- | --- | --- | --- | --- | --- | --- | --- | --- | --- | --- | --- | --- | --- | --- | --- | --- |
| C[C@H](C(=O)NCCCNCCCCNCCCN)[C@H]1CC[C@H]2[C@@H]3CC=C4C[C@@H](OS(=O)(=O)O)CC[C@]4(C)[C@H]3CC[C@]12C [SM-2, 23,24-bisnor-3β-ol-5-cholenic acid 3-sulfate spermine conjugate] | > 100 | > 100 | 3.13 (≈ 5.12 µM) | 12.5 (≈ 20.5 µM) | 3.13 (≈ 5.12 µM) | 3.13 (≈ 5.12 µM) | 12.5 (≈ 20.5 µM) | > 100 | 12.5 (≈ 20.5 µM) | > 100 | > 100 | > 100 | > 100 | 12.5 (≈ 20.5 µM) | 12.5 (≈ 20.5 µM) | > 100 | 6.25 (≈ 10.2 µM) | > 100 | 6.25 (≈ 10.2 µM) | MIC [20]: 12.5 µg/mL (≈ 20.5 µM); MIC [21]: 3.13 µg/mL (≈ 5.12 µM) |
| C[C@H](CCC(=O)NCCCNCCCCNCCCN)[C@H]1CC[C@H]2[C@@H]3CC[C@@H]4C[C@H](O)CC[C@]4(C)[C@H]3C[C@H](O)[C@]12C [SM-7, deoxycholic acid-spermine conjugate] | 12.5 | 3.13 (≈ 5.43 µM) | 1.56 (≈ 2.7 µM) | 12.5 (≈ 21.7 µM) | 3.13 (≈ 5.43 µM) | 0.78 (≈ 1.35 µM) | 6.25 (≈ 10.8 µM) | 25 (≈ 43.3 µM) | 1.56 (≈ 2.7 µM) | 1.56 (≈ 2.7 µM) | 3.13 (≈ 5.43 µM) | 6.25 (≈ 10.8 µM) | 3.13 (≈ 5.43 µM) | 3.13 (≈ 5.43 µM) | 3.13 (≈ 5.43 µM) | 3.13 (≈ 5.43 µM) | 3.13 (≈ 5.43 µM) | 12.5 (≈ 21.7 µM) | 0.78 (≈ 1.35 µM) | potency ranking against gram negative rods [22]: most potent activity against gram negative rods of all the mimics tested; enhancement of antimicrobial activity of rifampin [23]: markedly enhanced the antimicrobial activity of rifampin against gram negative rods; inhibition of (bactericidal) activity by albumin [24]: completely inhibited; hemolytic activity (in words) [25]: unwanted hemolytic activity; antibacterial action (bactericidal) [26]: bactericidal; antibacterial action (bactericidal) [27]: bactericidal; activity against S. marcescens ([8]; in words): found even against S. marcescens; also recorded: effective against S. marcescens; MIC [28]: 1.56 µg/mL (≈ 2.7 µM); MIC [29]: 12.5 µg/mL (≈ 21.7 µM); MIC [30]: 0.78 µg/mL (≈ 1.35 µM); antibacterial action (bactericidal) [31]: bactericidal; antimicrobial activity (in words) [32]: highly active; also recorded: more activity than SM-8, SM-14, and SM-22 |

Source: patent US5834453A, “Methods for the manufacture and use of antimicrobial sterol conjugates” (Lehigh University, priority 1997, dated 1998)
